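Test compounds were applied to cells in 96-well plates for 48 hours at 5 doses. Here, GI50 denotes the concentration required for 50% inhibition of growth.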 Activity calls are given as the source filed them. Rule as the data show it: active = GI50 up to about 1.1 µM and inactive = higher.
Legend:
Test in all cases: growth of human tumour cells (NCI), 48 h
786-0 = system: 786-0
A498 = system: A498
EKVX = system: EKVX
HCT-116 = system: HCT-116
Hs-578T = system: Hs-578T
KM12 = system: KM12
MCF7 = system: MCF7
MDA-MB-231 = system: MDA-MB-231
OVCAR-4 = system: OVCAR-4
OVCAR-5 = system: OVCAR-5
OVCAR-8 = system: OVCAR-8
RXF 393 = system: RXF 393
SF-295 = system: SF-295
SK-MEL-28 = system: SK-MEL-28
SK-MEL-5 = system: SK-MEL-5
SR = system: SR
TK-10 = system: TK-10
UACC-257 = system: UACC-257
UACC-62 = system: UACC-62
SF-539 = system: SF-539

Measured: GI50

C=CC[C@H](C)CCC(=O)N1[C@H]2CC3CC[C@@]2(CS1(=O)=O)C3(C)C
inactive: 786-0 50.6 µM | A498 > 100 µM | EKVX 51.1 µM | HCT-116 48 µM | Hs-578T 30.6 µM | KM12 39.3 µM | MCF7 33.9 µM | MDA-MB-231 > 100 µM | OVCAR-4 39.5 µM | OVCAR-5 > 100 µM | OVCAR-8 45.4 µM | RXF 393 49 µM | SF-295 45.2 µM | SK-MEL-28 > 100 µM | SK-MEL-5 21.5 µM | SR 31.5 µM | TK-10 > 100 µM | UACC-257 66.1 µM | UACC-62 > 100 µM

O=CN1CCN(C(=O)c2cc(Cl)cc(Cl)c2)C1=S
inactive: 786-0 4.71 µM | A498 15.3 µM | EKVX 17.9 µM | HCT-116 18.6 µM | Hs-578T 21 µM | KM12 14.4 µM | MCF7 3.47 µM | MDA-MB-231 15.6 µM | OVCAR-4 17.1 µM | OVCAR-5 21.9 µM | OVCAR-8 19.1 µM | RXF 393 16 µM | SF-295 17.7 µM | SF-539 20.2 µM | SK-MEL-28 18.4 µM | TK-10 15.3 µM | UACC-257 17.4 µM | UACC-62 15.8 µM

N#CC(C#N)=CNCCN1CCN(C=C(C#N)C#N)CC1
inactive: 786-0 > 100 µM | A498 > 100 µM | EKVX > 100 µM | HCT-116 > 100 µM | Hs-578T > 100 µM | KM12 > 100 µM | MCF7 > 100 µM | MDA-MB-231 > 100 µM | OVCAR-4 > 100 µM | OVCAR-5 > 100 µM | OVCAR-8 > 100 µM | SF-295 > 100 µM | SF-539 > 100 µM | SK-MEL-28 > 100 µM | SK-MEL-5 > 100 µM | SR > 100 µM | TK-10 > 100 µM | UACC-257 > 100 µM | UACC-62 > 100 µM

Nc1cc(F)ccc1CC(=O)O
inactive: 786-0 > 100 µM | A498 > 100 µM | EKVX > 100 µM | HCT-116 > 100 µM | Hs-578T > 100 µM | KM12 > 100 µM | MCF7 > 100 µM | MDA-MB-231 > 100 µM | OVCAR-5 > 100 µM | OVCAR-8 > 100 µM | RXF 393 > 100 µM | SF-295 > 100 µM | SF-539 > 100 µM | SK-MEL-28 > 100 µM | SK-MEL-5 > 100 µM | SR > 100 µM | TK-10 > 100 µM | UACC-257 > 100 µM | UACC-62 > 100 µM

C[C@H]1[C@H](C)CC[C@]2(C)CC[C@]3(C)C(=C[C@@H](O)[C@@H]4[C@@]5(C)[C@H](O)[C@@H](O)[C@H](O)C(C)(C)[C@@H]5CC[C@]43C)[C@H]12
inactive: 786-0 > 100 µM | A498 > 100 µM | HCT-116 > 100 µM | Hs-578T > 100 µM | KM12 96.2 µM | MCF7 > 100 µM | MDA-MB-231 > 100 µM | OVCAR-5 > 100 µM | OVCAR-8 > 100 µM | SF-295 > 100 µM | SF-539 > 100 µM | SK-MEL-5 > 100 µM | SR > 100 µM | UACC-257 > 100 µM | UACC-62 > 100 µM

NC(Cc1c[nH]c2ccc([N+](=O)[O-])cc12)C(=O)O (stereo not given)
inactive: 786-0 > 100 µM | A498 > 100 µM | EKVX > 100 µM | HCT-116 > 100 µM | Hs-578T 24.7 µM | KM12 > 100 µM | MCF7 > 100 µM | MDA-MB-231 > 100 µM | OVCAR-4 > 100 µM | OVCAR-5 > 100 µM | OVCAR-8 > 100 µM | RXF 393 > 100 µM | SF-295 > 100 µM | SK-MEL-28 > 100 µM | SK-MEL-5 > 100 µM | SR > 100 µM | TK-10 > 100 µM | UACC-257 > 100 µM | UACC-62 > 100 µM

Cc1ccc2c(c1C)CC1(Cc3ccc(C)c(C)c3C1=O)C2=O (stereo not given)
inactive: 786-0 39.4 µM | EKVX 44.2 µM | HCT-116 > 100 µM | Hs-578T 91.8 µM | KM12 > 100 µM | MCF7 66.8 µM | MDA-MB-231 30.8 µM | OVCAR-4 33.7 µM | OVCAR-5 > 100 µM | OVCAR-8 61.5 µM | RXF 393 17.1 µM | SF-295 30.3 µM | SF-539 28.6 µM | SK-MEL-28 > 100 µM | SK-MEL-5 76.9 µM | SR > 100 µM | TK-10 29.7 µM | UACC-257 > 100 µM | UACC-62 > 100 µM

OC1CC2CCCN(CCc3c1[nH]c1ccccc31)C2 (stereo not given)
inactive: 786-0 > 100 µM | A498 > 100 µM | HCT-116 > 100 µM | Hs-578T > 100 µM | KM12 > 100 µM | MCF7 > 100 µM | MDA-MB-231 89.3 µM | OVCAR-4 > 100 µM | OVCAR-8 > 100 µM | SF-295 > 100 µM | SF-539 > 100 µM | SK-MEL-28 > 100 µM | SK-MEL-5 47.3 µM | SR 97.1 µM | TK-10 > 100 µM | UACC-257 67.6 µM | UACC-62 86.7 µM

From ChEMBL document CHEMBL1201862, “PubChem BioAssay data set” (2004)
